In patent US20030017148A1, “Prevention of insulin-dependent diabetes, complications thereof, or allograft rejection by inhibition of cyclooxygenase-2 activity” (Oklahoma Medical Research Foundation, priority 2000, published 2003):
“And” between values parts separate entries of the source, which are not always exact repeats. Identical values can stand only once.

Key:
STZ-induced IDDM [1] = test: Multiple low-dose STZ-induced IDDM in CD-1 mice, PDTC treatment; type: in vivo; conditions: for Blood Glucose Level: STZ 40 mg/Kg 5 days, PDTC 150 mg/Kg daily, 100 mg/Kg from day 7, 11 treatments
Method: Method. CD-1 mice were divided into two groups (6 mice/group). Group 1 was treated with STZ (40 mg/Kg dissolved in cold sodium citrate buffer, pH 4.5) for 5 consecutive days. Group 2 was treated with STZ as described and received daily treatments of PDTC (150 mg/Kg, dissolved in physiological saline) starting from day 1 of STZ treatment. The PDTC dose was reduced to 100 mg/Kg at day 7 of the treatment. A total of 11 daily treatments of PDTC were given to the mice in this group (up to day 11 from the start of STZ treatment). Blood glucose levels were periodically determined in these mice.

STZ-induced IDDM [2] = test: Multiple low-dose STZ-induced IDDM in mice, NS-398 treatment; type: in vivo
Method: Chemicals: Streptozotocin was obtained from Sigma Chemical Company (St. Louis, Mo.). NS-398 was obtained from Cayman Chemicals (Ann Arbor, Mich.). Determination of blood glucose level was performed using the glucose oxidase kit obtained from Sigma Chemical Co. Total glycated hemoglobin (Hb A1) was measured using a kit from Sigma. Animal treatment: Ball/c or CD-1 mice (male, 6-8 weeks) from Charles-River (Indianapolis, Ind.) were used in this study. STZ was dissolved in citrate buffer pH 4.5 and was administered within 10 minutes of its dissolution. Animals receiving NS-398 treatment were injected with this compound 15 min prior to STZ treatment. Since STZ is both toxic and carcinogenic, extreme caution was practiced in its handling. NS-398 was dissolved in dimethylsulfoxide (DMSO). […] To control for the effect of DMSO, mice in the STZ group received 40 μl injections of DMSO for the same number of days as the STZ+NS-398 group. At different time intervals after the treatments, tail tip blood was drawn and used for the measurement of blood glucose levels and/or glycated hemoglobin. [table] […] PBS (control group) for 5 consecutive days. […] The STZ group received only STZ injections. […] For histological studies, 35 days following the treatments (multiple low-dose STZ±NS-398), mice were anaesthetized and perfused with 4% paraformaldehyde and pancreata were removed and post-fixed for an additional day. The paraffin sections (6 μ) were stained with Gambier's aldehyde fuchsia for the identification of pancreatic β cells. Untreated mice were used as controls for these studies. Statistical analyses: Statistical analyses of the data were performed using one way analysis of variance (Anoa) followed by Student's t-test. In order to determine whether NS-398 treatment would protect the animals against the diabetogenic action of STZ, blood glucose level, and the level of glycated hemoglobin (a marker of chronic hyperglycemia) were monitored in the mice treated with STZ in the absence and presence of NS-398. Histological studies were also performed on the pancreata of the treated animals in order to obtain morphological information on the status of the islet β cells.

[3] = test system: high-dose STZ-induced IDDM; test: Single high-dose STZ-induced IDDM in mice, NS-398 pre-treatment; type: in vivo; conditions: 48 h after single STZ 220 mg/Kg; NS-398 10 mg/Kg 15 min prior to STZ
Method: Animal treatment: Ball/c or CD-1 mice (male, 6-8 weeks) from Charles-River (Indianapolis, Ind.) were used in this study. STZ was dissolved in citrate buffer pH 4.5 and was administered within 10 minutes of its dissolution. Animals receiving NS-398 treatment were injected with this compound 15 min prior to STZ treatment. Since STZ is both toxic and carcinogenic, extreme caution was practiced in its handling. NS-398 was dissolved in dimethylsulfoxide (DMSO). […] To control for the effect of DMSO, mice in the STZ group received 40 μl injections of DMSO for the same number of days as the STZ+NS-398 group. At different time intervals after the treatments, tail tip blood was drawn and used for the measurement of blood glucose levels and/or glycated hemoglobin. [table] […] PBS (control group) for 5 consecutive days. […] The STZ group received only STZ injections.

[4] = in vivo; cited from earlier work
COX-2 = target: T1, COX-2 (Homo sapiens, UniProt P35354); conditions: cellular systems; cited from earlier work
T1 sequence (P35354 18-604): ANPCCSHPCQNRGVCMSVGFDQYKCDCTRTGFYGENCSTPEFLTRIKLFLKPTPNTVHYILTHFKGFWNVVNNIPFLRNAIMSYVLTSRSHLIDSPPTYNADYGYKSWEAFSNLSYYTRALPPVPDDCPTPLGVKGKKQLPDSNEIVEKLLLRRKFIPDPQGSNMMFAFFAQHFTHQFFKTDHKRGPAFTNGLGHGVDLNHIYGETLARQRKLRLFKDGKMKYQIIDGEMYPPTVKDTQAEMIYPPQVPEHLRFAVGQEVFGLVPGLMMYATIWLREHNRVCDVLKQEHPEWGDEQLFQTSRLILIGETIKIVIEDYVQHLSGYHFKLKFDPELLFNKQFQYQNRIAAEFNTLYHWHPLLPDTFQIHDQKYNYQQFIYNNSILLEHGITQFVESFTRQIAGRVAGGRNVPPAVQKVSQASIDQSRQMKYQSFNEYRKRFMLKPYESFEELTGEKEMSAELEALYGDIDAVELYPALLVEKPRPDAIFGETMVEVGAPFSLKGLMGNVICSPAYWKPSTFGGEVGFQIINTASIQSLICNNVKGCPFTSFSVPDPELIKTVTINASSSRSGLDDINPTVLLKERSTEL

[5] = test system: IDDM in low-dose STZ model; conditions: cited from earlier work
[6] = Tolerability of indomethacin in STZ-treated mice; conditions: indomethacin 3 mg/Kg/day with STZ 40 mg/Kg/day for 5 days; 5 mice/group
Method: In experiment 4, two groups of mice (5 mice/group) were treated with STZ (40 mg/Kg/day for 5 days). One group of these mice received daily treatments of indomethacin (3 mg/Kg/day). Indomethacin was dissolved in DMSO and an injection volume of 40 μl was used.

With `CN(N=O)C(=O)N[C@H]1C(O)O[C@H](CO)[C@@H](O)[C@@H]1O` (mixture of isomers) [STZ, Streptozotocin] the “Blood Glucose Level” value (STZ-induced IDDM [1]; day 11 of treatment) was 249.0 ± 50.2 mg/dL, the “Blood Glucose Level” value (STZ-induced IDDM [1]; day 19 of treatment) was 446.7 mg/dL and 446.7 ± 106.1 mg/dL and the “Blood Glucose Level” value (STZ-induced IDDM [2]; 30 days following completion of STZ treatment, STZ 40 mg/Kg/day 5 days, NS-398 5 mg/Kg/day ip from day 1, continued 6 days after STZ, mean ± SD) was 304.0 ± 91.6 mg/dL. The “glycated hemoglobin level (FIG. 2)” value (STZ-induced IDDM [2]; 30 days following treatment, STZ 40 mg/Kg/day 5 days ± NS-398) was “significantly elevated levels of glycated hemoglobin”, the “histology of pancreatic islet β cells (aldehyde fuchsin, FIG. 3)” value (STZ-induced IDDM [2]; 35 days following multiple low-dose STZ ± NS-398) was “nearly completely destroyed” and the “blood glucose level (FIG. 1)” value (STZ-induced IDDM [2]; experiment 1: STZ 40 mg/Kg/day ip 5 days, NS-398 10 mg/Kg/day, 11 injections from day 1, followed up to 28 days after cessation of NS-398) was “progressive rise in the blood glucose concentration”. The “Blood Glucose Level” value [3] was 311.1 ± 80.7 mg/dL.
For `CS(=O)(=O)Nc1cc2c(cc1Oc1ccc(F)cc1F)C(=O)CC2` [Flosulide], the ID50 [4] is listed as under 0.1 mg/kg.
In the case of `Cc1nc(C2CCCCC2)c(-c2ccc(S(N)(=O)=O)c(F)c2)o1` [JTE-522, 4-(4-cyclohexyl-2-methyloxazol-5-yl)-2-Fluorobenzene Sulfonamide], the IC50 (COX-2) is given as 15.1 nM.
For `CS(=O)(=O)Nc1cc2c(cc1Sc1ccc(F)cc1F)C(=O)CC2` [L-745,337, 5-methane sulfonamido-6-(2,4-difluorothiophenyl)-1-indanone], the ED50 [4] is given as 2 mg/kg and the ID50 [4] is given as 0.4 mg/kg.
For `Cc1ccc(-c2ncc(Cl)cc2-c2ccc(S(C)(=O)=O)cc2)cn1` [L-791,456, 5-Chloro-3(4-methylsulfonyl) phenyl-2-(2-methyl-5-pyridinyl) pyridine], the ED50 [4] is given as 0.6 mg/kg.
In the case of `CC(C)(C)[N+]([O-])=Cc1ccccc1` [PBN, phenyl N-tert-butylnitrone], the “protection against IDDM” value [5] is listed as “protect against IDDM”.
In the case of `CCSc1nnc(-c2cc(C(C)(C)C)c(O)c(C(C)(C)C)c2)s1` [PD164387], the ED40 [4] is given as 7.1 mg/kg.
With `S=C(S)N1CCCC1` [PDTC, Pyrrolidine Dithiocarbamate] the “protection from STZ-induced IDDM” value (STZ-induced IDDM [1]; PDTC daily from day 1 of STZ treatment) was “protected from STZ-induced IDDM”, the “Blood Glucose Level” value (STZ-induced IDDM [1]; day 11 of treatment) was 190.8 ± 23.2 mg/dL and the “Blood Glucose Level” value (STZ-induced IDDM [1]; day 19 of treatment) was 199.6 mg/dL and 199.6 ± 35.6 mg/dL.
For `CS(=O)(=O)c1ccc(C2=C(c3ccc(F)cc3)CCC2)cc1` [SC-57666, 1-[2-(4-Fluorophenyl)cyclopenten-1-yl]-4-(methylsulfonyl) benzene], the ED50 [4] is given as “low”.
For `COc1ccc2c(c1)c(CC(=O)O)c(C)n2C(=O)c1ccc(Cl)cc1` [indomethacin], the “mice that died during or following treatment” value [6] was “Four out of five”.
